Source: patent US8329904B2, “Azacyclic derivatives” (Hoffmann-La Roche Inc., priority 2009, dated 2012)

Target: T1, human HSL (Homo sapiens, UniProt Q05469)
T1 construct: overlapping PCR to generate a full length human HSL ORF with a 3′-His6 tag; His6 (C); made in house; host or cells: High 5 insect cells (baculovirus, pFast-BAC)
T1 sequence (Q05469 1-1076): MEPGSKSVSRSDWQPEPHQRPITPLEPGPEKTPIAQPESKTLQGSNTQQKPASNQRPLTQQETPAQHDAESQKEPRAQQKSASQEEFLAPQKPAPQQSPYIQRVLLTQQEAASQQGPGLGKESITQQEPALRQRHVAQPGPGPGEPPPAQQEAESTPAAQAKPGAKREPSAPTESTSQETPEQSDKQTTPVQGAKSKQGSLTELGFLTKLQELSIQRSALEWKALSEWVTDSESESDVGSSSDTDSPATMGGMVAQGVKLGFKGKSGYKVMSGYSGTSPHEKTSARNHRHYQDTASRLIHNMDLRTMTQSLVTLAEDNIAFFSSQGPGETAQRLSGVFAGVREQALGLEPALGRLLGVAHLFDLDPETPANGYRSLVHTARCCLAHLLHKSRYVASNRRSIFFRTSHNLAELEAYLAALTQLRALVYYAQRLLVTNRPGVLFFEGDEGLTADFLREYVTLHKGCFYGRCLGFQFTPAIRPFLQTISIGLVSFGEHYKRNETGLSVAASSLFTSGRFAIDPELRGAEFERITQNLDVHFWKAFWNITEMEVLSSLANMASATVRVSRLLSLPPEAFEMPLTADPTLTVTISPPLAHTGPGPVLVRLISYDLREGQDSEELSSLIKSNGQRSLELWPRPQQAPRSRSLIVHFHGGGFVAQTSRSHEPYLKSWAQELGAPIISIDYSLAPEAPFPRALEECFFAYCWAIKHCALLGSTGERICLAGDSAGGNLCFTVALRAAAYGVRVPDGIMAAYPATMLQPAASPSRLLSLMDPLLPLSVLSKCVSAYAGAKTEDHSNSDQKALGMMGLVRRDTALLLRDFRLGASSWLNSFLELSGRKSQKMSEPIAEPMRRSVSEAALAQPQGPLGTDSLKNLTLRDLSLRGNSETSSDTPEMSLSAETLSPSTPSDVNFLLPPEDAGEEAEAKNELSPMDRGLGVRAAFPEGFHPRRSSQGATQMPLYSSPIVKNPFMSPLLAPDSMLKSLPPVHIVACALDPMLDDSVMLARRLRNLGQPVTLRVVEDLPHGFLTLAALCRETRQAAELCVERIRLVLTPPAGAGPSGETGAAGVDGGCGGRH
Assay: Human Hormone-Sensitive Lipase (HSL) Enzyme Inhibition Assay
Assay type: biochemical
Settings: colorimetric assay, 2,3-dimercapto-1-propanol tributyrate (DMPT) substrate, 37° C. for 20 minutes, absorbance at 405 nm; read-out: HSL hum IC50
Summary of the method: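 Colorimetric thioester hydrolysis: compounds in DMSO series mixed with DMPT (1.5 mM) in MOPS pH 7.2 with BSA, then baculovirus-expressed His6-tagged full-length human HSL added, 37° C, 20 min. DTNB plus detergents added, 15 min room temperature, absorbance at 405 nm.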

| SMILES | IC50 [nM] |
| --- | --- |
| CC(C)(C)CS(=O)(=O)N1CCC2(CCN(c3ccc(OCCC(F)(F)F)cc3)C2=O)CC1 [Example 139, 8-(Neopentylsulfonyl)-2-(4-(3,3,3-trifluoropropoxy)phenyl)-2,8-diazaspiro[4.5]decan-1-one] | 310 |
| O=C1N(c2ccc(/C=C/C3CC3)cc2)CCC12CCN(S(=O)(=O)c1ccccc1OC(F)(F)F)CC2 [Example 145, 2-[4-((E)-2-Cyclopropyl-vinyl)-phenyl]-8-(2-trifluoromethoxy-benzenesulfonyl)-2,8-diaza-spiro[4.5]decan-1-one] | 120 |
| O=C1N(c2ccc(OCC(F)(F)F)cc2)CCC12CCN(S(=O)(=O)c1ccccc1OC(F)(F)F)CC2 [Example 79, 2-[4-(2,2,2-Trifluoro-ethoxy)-phenyl]-8-(2-trifluoromethoxy-benzenesulfonyl)-2,8-diaza-spiro[4.5]decan-1-one] | 40 |
| CN(CCc1ccccc1)S(=O)(=O)N1CCC2(CCN(c3ccc(OC(F)(F)F)cc3)C2=O)CC1 [Example 297, 1-Oxo-2-(4-trifluoromethoxy-phenyl)-2,8-diaza-spiro[4.5]decane-8-sulfonic acid methyl-phenethyl-amide] | 110 |
| Cc1nc(C(=O)N2CCC3(CC2)CCN(c2ccc(OC(F)(F)F)cc2)C3=O)cs1 [Example 224, 8-(2-Methyl-thiazole-4-carbonyl)-2-(4-trifluoromethoxy-phenyl)-2,8-diaza-spiro[4.5]decan-1-one] | 820 |
| CS(=O)(=O)c1ccc(N2CCC3(CCN(S(=O)(=O)c4ccccc4Cl)CC3)C2=O)cc1 [Example 140, 8-(2-Chloro-benzenesulfonyl)-2-(4-methanesulfonyl-phenyl)-2,8-diaza-spiro[4.5]decan-1-one] | 40 |
| O=C1N(c2ccc(C3CC3)cc2)CCC12CCN(S(=O)(=O)c1ccccc1Cl)CC2 [Example 33, 8-(2-Chloro-benzenesulfonyl)-2-(4-cyclopropyl-phenyl)-2,8-diaza-spiro[4.5]decan-1-one] | 30 |
| Cc1noc(C)c1S(=O)(=O)N1CCC2(CCN(c3ccc(OC(C)C)cc3)C2=O)CC1 [Example 111, 8-(3,5-Dimethyl-isoxazole-4-sulfonyl)-2-(4-isopropoxy-phenyl)-2,8-diaza-spiro[4.5]decan-1-one] | 110 |
| O=C1N(c2ccc(C(O)C(F)(F)F)cc2)CCC12CCN(S(=O)(=O)c1ccccc1OC(F)(F)F)CC2 (centres unmarked) [Example 163, 2-[4-(2,2,2-Trifluoro-1-hydroxy-ethyl)-phenyl]-8-(2-trifluoromethoxy-benzenesulfonyl)-2,8-diaza-spiro[4.5]decan-1-one] | 20 |

Continued by falling IC50, values first:

| IC50 [nM] | SMILES |
| --- | --- |
| 470 | O=C1N(c2cnc(OCC(F)(F)F)nc2)CCC12CCN(S(=O)(=O)c1ccccc1)CC2 [Example 118, 8-Benzenesulfonyl-2-[2-(2,2,2-trifluoro-ethoxy)-pyrimidin-5-yl]-2,8-diaza-spiro[4.5]decan-1-one] |
| 100 | O=C(N1CCCCC1)N1CCC2(CC1)CCN(c1ccc(OC(F)(F)F)cc1)C2=O [Example 256, 8-(Piperidine-1-carbonyl)-2-(4-trifluoromethoxy-phenyl)-2,8-diaza-spiro[4.5]decan-1-one] |
| 60 | Cc1nn(C)c(C)c1S(=O)(=O)N1CCC2(CCN(c3ccc(OC(F)(F)F)cc3)C2=O)CC1 [Example 180, 2-(4-Trifluoromethoxy-phenyl)-8-(1,3,5-trimethyl-1H-pyrazole-4-sulfonyl)-2,8-diaza-spiro[4.5]decan-1-one] |
| 60 | O=C1N(c2ccc(OCC(F)(F)F)nc2)CCC12CCN(S(=O)(=O)c1ccccc1)CC2 [Example 117, 8-Benzenesulfonyl-2-[6-(2,2,2-trifluoro-ethoxy)-pyridin-3-yl]-2,8-diaza-spiro[4.5]decan-1-one] |
| 40 | CCOCc1ccc(N2CCC3(CCN(S(=O)(=O)c4ccccc4Cl)CC3)C2=O)cc1 [Example 149, 8-(2-Chloro-benzenesulfonyl)-2-(4-ethoxymethyl-phenyl)-2,8-diaza-spiro[4.5]decan-1-one] |
